Reference: PubChem BioAssay (NCI)
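GI50 is the concentration that inhibits growth by half. TGI: concentration producing complete growth inhibition.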

Legend:
Test in all cases: DTP human tumour cell line panel, 384-well format
A549 NSCLC = tested on: A549 NSCLC
ACHN renal = tested on: ACHN renal
BT-549 breast = tested on: BT-549 breast
CCRF-CEM leukemia = tested on: CCRF-CEM leukemia
DU-145 prostate = tested on: DU-145 prostate
EKVX NSCLC = tested on: EKVX NSCLC
HCT-15 colon = tested on: HCT-15 colon
HL-60(TB) leukemia = tested on: HL-60(TB) leukemia
HOP-62 NSCLC = tested on: HOP-62 NSCLC
HOP-92 NSCLC = tested on: HOP-92 NSCLC
HS 578T breast = tested on: HS 578T breast
K-562 leukemia = tested on: K-562 leukemia
LOX IMVI melanoma = tested on: LOX IMVI melanoma
M14 melanoma = tested on: M14 melanoma
MALME-3M melanoma = tested on: MALME-3M melanoma
MDA-MB-231 breast = tested on: MDA-MB-231 breast
MDA-MB-435 melanoma = tested on: MDA-MB-435 melanoma
MDA-MB-468 breast = tested on: MDA-MB-468 breast
MOLT-4 leukemia = tested on: MOLT-4 leukemia
NCI-H23 lung = tested on: NCI-H23 lung
NCI-H322M lung = tested on: NCI-H322M lung
NCI-H522 lung = tested on: NCI-H522 lung
OVCAR-3 ovarian = tested on: OVCAR-3 ovarian
OVCAR-4 ovarian = tested on: OVCAR-4 ovarian
OVCAR-5 ovarian = tested on: OVCAR-5 ovarian
OVCAR-8 ovarian = tested on: OVCAR-8 ovarian
PC-3 prostate = tested on: PC-3 prostate
RPMI-8226 leukemia = tested on: RPMI-8226 leukemia
RXF 393 renal = tested on: RXF 393 renal
SF-268 CNS = tested on: SF-268 CNS
SF-539 CNS = tested on: SF-539 CNS
SK-MEL-2 melanoma = tested on: SK-MEL-2 melanoma
SK-MEL-28 melanoma = tested on: SK-MEL-28 melanoma
SN12C renal = tested on: SN12C renal
SNB-19 CNS = tested on: SNB-19 CNS
SNB-75 CNS = tested on: SNB-75 CNS
SW-620 colon = tested on: SW-620 colon
TK-10 renal = tested on: TK-10 renal
UACC-257 melanoma = tested on: UACC-257 melanoma
UACC-62 melanoma = tested on: UACC-62 melanoma
UO-31 renal = tested on: UO-31 renal

SMILES: CO[C@H](C(=O)[C@@H](O)[C@@H](C)O)[C@@H]1Cc2cc3cc(OC4CC(OC5CC(O)C(O)C(C)O5)C(O)C(C)O4)c(C)c(O)c3c(O)c2C(=O)[C@H]1OC1CC(OC2CC(OC3CC(C)(O)C(O)C(C)O3)C(O)C(C)O2)C(O)C(C)O1 (some centres undefined)
- GI50 (A549 NSCLC): 0.0304 µM
- GI50 (ACHN renal): 0.0546 µM
- TGI (ACHN renal): 0.294 µM
- GI50 (BT-549 breast): 0.0106 µM
- TGI (BT-549 breast): 0.0237 µM
- GI50 (CCRF-CEM leukemia): 0.0339 µM
- TGI (CCRF-CEM leukemia): 0.11 µM
- GI50 (DU-145 prostate): 0.0288 µM
- GI50 (EKVX NSCLC): 0.0751 µM
- TGI (EKVX NSCLC): 11 µM
- GI50 (HCT-15 colon): 0.139 µM
- TGI (HCT-15 colon): 0.97 µM
- GI50 (HL-60(TB) leukemia): 0.014 µM
- TGI (HL-60(TB) leukemia): 0.0294 µM
- GI50 (HOP-62 NSCLC): 0.0137 µM
- TGI (HOP-62 NSCLC): 0.0295 µM
- GI50 (HOP-92 NSCLC): 0.0317 µM
- GI50 (HS 578T breast): 0.0132 µM
- TGI (HS 578T breast): 0.0277 µM
- GI50 (K-562 leukemia): 0.0188 µM
- TGI (K-562 leukemia): 0.0404 µM
- GI50 (LOX IMVI melanoma): 0.0169 µM
- TGI (LOX IMVI melanoma): 0.0312 µM
- GI50 (M14 melanoma): 0.018 µM
- TGI (M14 melanoma): 0.0398 µM
- GI50 (MALME-3M melanoma): 0.0141 µM
- TGI (MALME-3M melanoma): 0.028 µM
- GI50 (MDA-MB-231 breast): 0.0166 µM
- TGI (MDA-MB-231 breast): 0.0372 µM
- GI50 (MDA-MB-435 melanoma): 0.0189 µM
- TGI (MDA-MB-435 melanoma): 0.0384 µM
- GI50 (MDA-MB-468 breast): 0.0163 µM
- TGI (MDA-MB-468 breast): 0.0324 µM
- TGI (MOLT-4 leukemia): 0.0177 µM
- GI50 (NCI-H23 lung): 0.0184 µM
- TGI (NCI-H23 lung): 0.0359 µM
- GI50 (NCI-H322M lung): 0.0174 µM
- TGI (NCI-H322M lung): 0.0422 µM
- GI50 (NCI-H522 lung): 0.013 µM
- TGI (NCI-H522 lung): 0.0268 µM
- GI50 (OVCAR-3 ovarian): 0.0203 µM
- TGI (OVCAR-3 ovarian): 0.0734 µM
- GI50 (OVCAR-4 ovarian): 0.0316 µM
- TGI (OVCAR-4 ovarian): 0.371 µM
- GI50 (OVCAR-5 ovarian): 0.0195 µM
- TGI (OVCAR-5 ovarian): 0.0435 µM
- GI50 (OVCAR-8 ovarian): 0.0155 µM
- TGI (OVCAR-8 ovarian): 0.0299 µM
- GI50 (PC-3 prostate): 0.0329 µM
- TGI (PC-3 prostate): 0.22 µM
- GI50 (RPMI-8226 leukemia): 0.0111 µM
- TGI (RPMI-8226 leukemia): 0.0236 µM
- GI50 (RXF 393 renal): 0.0107 µM
- TGI (RXF 393 renal): 0.0231 µM
- GI50 (SF-268 CNS): 0.0172 µM
- TGI (SF-268 CNS): 0.965 µM
- GI50 (SF-539 CNS): 0.0136 µM
- TGI (SF-539 CNS): 0.0271 µM
- GI50 (SK-MEL-2 melanoma): 0.0329 µM
- TGI (SK-MEL-2 melanoma): 0.0479 µM
- GI50 (SK-MEL-28 melanoma): 0.0164 µM
- TGI (SK-MEL-28 melanoma): 0.0305 µM
- GI50 (SN12C renal): 0.0152 µM
- TGI (SN12C renal): 0.0369 µM
- GI50 (SNB-19 CNS): 0.0237 µM
- GI50 (SNB-75 CNS): 0.0118 µM
- TGI (SNB-75 CNS): 0.0304 µM
- GI50 (SW-620 colon): 0.0324 µM
- GI50 (TK-10 renal): 0.0503 µM
- GI50 (UACC-257 melanoma): 0.0185 µM
- TGI (UACC-257 melanoma): 0.0345 µM
- TGI (UACC-62 melanoma): 0.0216 µM
- GI50 (UO-31 renal): 0.182 µM
- TGI (UO-31 renal): 0.451 µM
